The test system of assay [1] is Balb/c mice spleen cells stimulated with irradiated CBA spleen cells. Nature of the assay: Mixed Lymphocyte Reaction (MLR). Format: cell-based. An excerpt:
Cyclosporins which bind strongly to cyclophilin but are not immunosuppressive have been identified. A cyclosporin is considered to be non-immunosuppressive when it has an activity in the Mixed Lymphocyte Reaction (MLR) of no more than 5%, preferably no more than 2%, that of cyclosporin A. The Mixed Lymphocyte Reaction is described by T. Meo in “Immunological Methods”, L. Lefkovits and B. Peris, Eds., Academic Press, N.Y. pp. 227-239 (1979). Spleen cells (0.5×10^6) from Balb/c mice (female, 8-10 weeks) are co-incubated for 5 days with 0.5×10^6 irradiated (2000 rads) or mitomycin C treated spleen cells from CBA mice (female, 8-10 weeks). The irradiated allogeneic cells induce a proliferative response in the Balb c spleen cells which can be measured by labeled precursor incorporation into the DNA. […] The IC50 found for the test compound in the MLR is compared with that found for cyclosporin A in a parallel experiment. In addition, non-immunosuppressive cyclosporins lack the capacity of inhibiting CN and the downstream NF-AT pathway.
IR=immunosuppressive Ratio, expressed as a percentage of the activity relative to Cyclosporin A.

The target of assay [2] is human recombinant cyclophilin (Homo sapiens, UniProt P62937). In words: competitive ELISA test of cyclophilin binding (Binding Ratio). The following applies: relative to cyclosporin A in a simultaneous test.
human recombinant cyclophilin, sequence (P62937 whole entry): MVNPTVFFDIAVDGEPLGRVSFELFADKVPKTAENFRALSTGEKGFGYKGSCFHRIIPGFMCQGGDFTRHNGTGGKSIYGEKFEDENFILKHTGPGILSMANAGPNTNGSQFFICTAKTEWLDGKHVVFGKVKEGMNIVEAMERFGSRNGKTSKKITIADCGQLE
Excerpt: A cyclosporin is considered as binding to cyclophilin if it binds to human recombinant cyclophilin at least one fifth as well as does cyclosporin A in the competitive ELISA test described by Quesniaux in Eur. J. Immunol. […] The results are expressed as the Binding Ratio (BR), which is the log to the base 10 of the ratio of the IC50 of the test compound and the IC50 in a simultaneous test of cyclosporin A itself.
In assay [3] the test system is HCV subgenomic replicon in MH-14 cells. In words: immunoblot analysis of HCV NS5A and NS5B proteins in MH-14 HCV replicon cells. Particulars: 7 days. In kind it is cell-based. On the procedure:
(§1) Cell culture: Huh-7 and MH-14 cells, HCV replicon cells, are cultured in Dulbecco's modified Eagle's medium (DMEM) with 10% fetal bovine serum (FBS). PH5CH8 cells are cultured in a 1:1 mixture of DMEM and F12 medium supplemented with 100 ng/ml of epidermal growth factor, 10 μ/ml of insulin, 0.36 μg/ml of hydrocortisone, 5 μg/ml of transferrin, 5 μg/ml of linoleic acid, 20 ng/ml of selenium, 4 μg/ml of glucagon, 10 ng/ml of prolactin, 10 μg/ml of gentamicin, 200 μg/ml of kanamycin, and 2% FBS.
Immunoblot analysis: Immunoblot analysis is performed as described by K. Watashi et al., Virology 2001, 286, 391-402. The primary antibodies used in this experiment are anti-NS5A, anti-NS5B, and anti-β-actin (Sigma) antibodies.
The effect of various cyclosporins of the invention on the replication of the HCV genome using MH-14 cells, in which the HCV subgenomic replicon as shown in FIG. 1A is autonomously replicated.
In general terms: A western blot detects proteins with antibodies after separation by electrophoresis.

For assay [4], the system named is HCV in PH5CH8 cells (non-neoplastic hepatocyte cell line). In words: in vitro HCV infection experiment in PH5CH8 cells. Format: cell-based. The following applies: PH5CH8 cells treated continuously; untreated cells increase about 10-fold. The procedure: as §1
(§2) Real time RT-PCR analysis: The 5′-UTR of HCV genome RNA is quantified using the ABI PRISM 7700 sequence detector (AppliedBiosystems) as described by T. Takeuchi et al., Gastroenterology, 1999, 116, 636-642. The forward and reverse primers used in this experiment are 5′-[…]-3′ and 5′-[…]-3′, respectively. The fluorogenic probe is 5′-[…]-3′. As an internal control, ribosomal RNA is also quantified using TaqMan Ribosomal RNA Control Reagents (Applied Biosystems).

Assay [5] deals with HCV subgenomic replicon in MH-14 cells. In words: northern blot analysis of replicon RNA in MH-14 cells. In kind it is cell-based. Particulars: 1 μg/ml, 7 days. The procedure: as §1
Northern blot analysis: Northern blot analysis is performed as described by H. Kishine et al., Biochem. Biophys. Res. Commun., 2002, 47, 119-125. The probe complementary to the NS5B sequence used in this experiment is described by H. Kishine, supra.
(§3) Replicon RNA is analyzed in MH-14 cells treated with or without a cyclosporin of the invention or IFNα for 7 days by northern blot analysis.

Assay [6] has the same test system. Particulars: 7th day. The procedure:
as §2, §3

Another assay has as its system HCV. The following applies: ribavirin alone; cited from earlier work.

On to [MeVal]^5-Ciclosporin, for which the “IR (immunosuppressive Ratio, percentage of the activity relative to Cyclosporin A)” value in assay [1] was 5.3%. The “BR (Binding Ratio: log to the base 10 of the ratio of the IC50 of the test compound and the IC50 of cyclosporin A)” value in assay [2] turned out to be 0.4.

As for [MeVa]^4-Ciclosporin, in assay [2], the “BR (Binding Ratio: log to the base 10 of the ratio of the IC50 of the test compound and the IC50 of cyclosporin A)” value stood at 0.1.

Turning to IFNα, the “amount of HCV NS5A and NS5B proteins by immunoblot analysis” value in assay [3] (100 U/ml, positive control) was “undetectable”. Moreover, the “increase of HCV RNA genome titer, 5th day versus 1st day post-inoculation” value in assay [4] is on record as “not observed”.

Turning to [MeAla]^6-Ciclosporin, the “IR (immunosuppressive Ratio, percentage of the activity relative to Cyclosporin A)” value in assay [1] is 3.2%. In addition, in assay [2], the “BR (Binding Ratio: log to the base 10 of the ratio of the IC50 of the test compound and the IC50 of cyclosporin A)” value is −0.4.

For the compound [Melle]^4-Ciclosporin, the “amount of HCV NS5A and NS5B proteins by immunoblot analysis” value in assay [3] (1 μg/ml) was “undetectable”. The “amount of replicon RNA by northern blot” value in assay [5] is listed as “undetectable level”. Further, the “level of HCV RNA relative to the original” value in assay [6] is “about 1/400”. Besides, in assay [4], the “increase of HCV RNA genome titer, 5th day versus 1st day post-inoculation” value was “not observed”. For the same compound, in assay [2], the “BR (Binding Ratio: log to the base 10 of the ratio of the IC50 of the test compound and the IC50 of cyclosporin A)” value is recorded as −0.2.

[γ-hydroxy-MeLeu]^9-Ciclosporin: the “IR (immunosuppressive Ratio, percentage of the activity relative to Cyclosporin A)” value in assay [1] is reported as 2.9%. For the same compound, the “BR (Binding Ratio: log to the base 10 of the ratio of the IC50 of the test compound and the IC50 of cyclosporin A)” value in assay [2] worked out at 0.15.

As to [Ethyl-Ile]^4-Ciclosporin, the “BR (Binding Ratio: log to the base 10 of the ratio of the IC50 of the test compound and the IC50 of cyclosporin A)” value in assay [2] is 0.1.

On to [Ethyl-Val]^4-Ciclosporin, for which, in assay [2], the “BR (Binding Ratio: log to the base 10 of the ratio of the IC50 of the test compound and the IC50 of cyclosporin A)” value was found to be 0.

Regarding [8′-hydroxy-MeBmt]^1-Ciclosporin, the “IR (immunosuppressive Ratio, percentage of the activity relative to Cyclosporin A)” value in assay [1] worked out at 1.8%. In addition, in assay [2], the “BR (Binding Ratio: log to the base 10 of the ratio of the IC50 of the test compound and the IC50 of cyclosporin A)” value was 0.35.

Regarding `NC(=O)c1ncn([C@@H]2O[C@H](CO)[C@@H](O)[C@H]2O)n1` [Ribavirin, 1-β-D-ribofuranosyl-1-1,2,4-triazole-3-caroxamide], in the assay with HCV, the “patients with serum amino transferase levels reduced to normal” value is given as 40 % of patients and the “serum levels of HCV-RNA” value is “does not lower”.

Source of the values: patent publication US20090214464A1, “COMPOUNDS FOR FLAVIVIRIDAE TREATMENT” (priority 2004, published 2009).
